Reference: patent US6649643B1, “Imidazol-4-ylmehanols and their use as inhibitors of steroid C17-20 lyase” (Takeda Chemical Industries, Ltd., priority 1999, dated 2003)
Counter-ions that a name gives are not always drawn.

Key:
[1] = molecular target: T1, Rat Steroid C17,20-lyase (Rattus norvegicus, UniProt P11715); assay: Inhibitory activity on a rat steroid C17,20-lyase in vitro; type: biochemical; conditions: rat testicular microsomes, 10 nM [1,2-3H]-17-α-hydroxyprogesterone, NADPH, 7 min at 37° C., products testosterone and androstenedione
T1 construct: Testes excised from 13-week old, male SD rats were homogenized, and testicular microsomes were prepared; from tissue; host or cells: testicular microsomes of 13-week old male SD rats
T1 sequence (P11715 1-507): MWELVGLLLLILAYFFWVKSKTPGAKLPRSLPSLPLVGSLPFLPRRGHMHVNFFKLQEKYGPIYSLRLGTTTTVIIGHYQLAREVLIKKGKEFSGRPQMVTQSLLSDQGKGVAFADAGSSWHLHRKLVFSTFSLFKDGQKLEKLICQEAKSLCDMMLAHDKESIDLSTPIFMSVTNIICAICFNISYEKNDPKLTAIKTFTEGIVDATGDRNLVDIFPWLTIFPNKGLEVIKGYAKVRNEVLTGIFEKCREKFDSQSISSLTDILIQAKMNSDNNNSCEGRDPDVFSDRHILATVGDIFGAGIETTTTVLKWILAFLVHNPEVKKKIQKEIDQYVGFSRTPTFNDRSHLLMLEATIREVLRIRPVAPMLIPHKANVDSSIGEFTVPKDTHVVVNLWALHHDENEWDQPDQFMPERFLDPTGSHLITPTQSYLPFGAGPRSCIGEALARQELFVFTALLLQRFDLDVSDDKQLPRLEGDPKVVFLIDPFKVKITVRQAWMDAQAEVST
Procedure: Assay of Inhibitory Activity on a Rat Steroid C17,20-lyase in Vitro
Inhibitory activity was determined according to the method described in The Prostate, vol. 26, 140-150(1995) with some modifications.
Testes excised from 13-week old, male SD rats were homogenized, and testicular microsomes were prepared by a series of centrifugation. The microsome protein (7 μg/10 μl) was added to 101 μl of 100 mM phosphate buffer (pH 7.4) in which 10 nM (final concentration) [1,2-3H]-17-α-hydroxyprogesterone, NADPH, and test compounds were dissolved. The reaction mixture was incubated for 7 min at 37° C., terminated by addition of 40 μl of ethyl acetate, and briefly centrifuged. The substrate and the products (testosterone and androstenedione) in the upper phase were separated by silica gel thin layer chromatography. Detection of the spots and measurement of the radioactivity were performed by a BAS 2000 Bioimage analyzer. The concentration of the test compounds necessary to reduce the concentration of the products by 50% (The concentration in the control group in which no test compound was added was taken as 100%) was calculated, and shown in Table 1.

[2] = system: testosterone biosynthesis; assay: Inhibitory activity on testosterone biosynthesis in rats; type: in vivo, rat; conditions: male SD rats, oral, 50 mg/kg, serum testosterone 2 h later by radioimmunoassay, percentage of control group
Procedure: Assay of Inhibitory Activity on Testosterone Biosynthesis in Rats
Test compounds were orally administered to 9-week old, male SD (Sprague-Dawley rats at a dose of 50 mg/kg. Two-h later blood was taken and testosterone concentration in serum was measured by radioimmunoassay. The percentage of the testosterone concentration of the groups of rats, which received test compounds, to that of the control group was calculated, and regarded as the inhibitory activity.

Row | Compound | IC50 [1] [nM] | Inhibitory activity on testosterone bioxynthesis (T/C, %) [2] [%]
1 | CC(C)C(O)(c1ccc2cc(-c3ccco3)ccc2c1)c1c[nH]cn1 (stereo not drawn) [Example 2, 1-(6-(2-Furyl)-2-naphthyl)-1-(1H-imidazol-4-yl)-2-methyl-1-propanol] | 28 | 
2 | CC(C)C(O)(c1ccc2cc(-c3cn[nH]c3)ccc2c1)c1c[nH]cn1 (stereo not drawn) [Example 6, 1-(1H-Imidazol-4-yl)-2-methyl-1-(6-(1H-pyrazol-4-yl)-2-naphthyl)-1-propanol] | 15 | 10
3 | CC(C)C(O)(c1ccc2cc(-c3cnco3)ccc2c1)c1c[nH]cn1 (stereo not drawn) [Example 7, 1-(1H-Imidazol-4-yl)-2-methyl-1-(6-(1,3-oxazol-5-yl)-2-naphthyl)-1-propanol] | 14 | 
4 | CCC(O)(c1ccc2c3c(ccc2c1)OCC3)c1c[nH]cn1 (stereo not drawn) [Example 18, 1-(1,2-Dihydronaphtho[2,1-b]furan-7-yl)-1-(1H-imidazol-4-yl)-1-propanol] | 18 | 7.4

These reach a lower IC50 [1]. Values come first.

Row | IC50 [1] [nM] | Compound | Inhibitory activity on testosterone bioxynthesis (T/C, %) [2] [%]
5 | 6.1 | CNC(=O)c1ccc2cc(C(O)(c3c[nH]cn3)C(C)C)ccc2c1 (stereo not drawn) [Example 9, 6-(1-Hydroxy-1-(1H-imidazol-4-yl)-2-methyl-propyl)-N-methyl-2-naphthamide] | 4.5
6 | 3.3 | COc1cc2ccc([C@](O)(c3c[nH]cn3)C(C)C)cc2cc1OC [Example 22, (S)-(−)-1-(6,7-Dimethoxy-2-naphthyl)-1-(1H-imidazol-4-yl)-2-methyl-1-propanol.fumaric Acid Salt] | 
